Laboratory results as given in patent US20260337153A1, “IONIZABLE AMINE LIPIDS” (Intellia Therapeutics, Inc., priority 2023, published 2026).

Test system: rat TTR gene
Test: In vivo editing of TTR in rat liver after LNP delivery (NGS, % editing)
Parameters: species or system rat (Sprague-Dawley)
Settings: for Mean % editing in rat liver: NGS, dose 0.03 mpk, LNP with G000534 sgRNA and Cas9 mRNA 1:2 w/w, 3% C13 Ether (Compound 53: 3% PEG2K-DMG), N=5 (Compound 33: N=4)
How it was run: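 Four-component LNPs (ionizable amine lipid, DSPC, cholesterol, PEG lipid) carried Cas9 mRNA and a chemically modified sgRNA against rat TTR, made by impinging jet mixing at an N:P near 6. They were injected into the lateral tail vein of female Sprague-Dawley rats. Liver genomic DNA collected at 6 or 7 days was amplicon-sequenced on Illumina MiSeq to calculate percent indels.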

[1] = Experiment 12, 0.04 mpk, LNP with PEG2K-DMG
[2] = Experiment 7, 0.1 mpk, LNP with PEG2K-DMG
[3] = Experiment 10, 0.1 mpk, LNP with PEG2K-DMG
[4] = Experiment 14, 0.03 mpk, LNP with C13 Ether
[5] = Experiment 2, 0.1 mpk, LNP with PEG2K-DMG
[6] = Experiment 3, 0.1 mpk, LNP with PEG2K-DMG
[7] = Experiment 9, 0.1 mpk, LNP with PEG2K-DMG
[8] = Experiment 13, 0.03 mpk, LNP with PEG2K-DMG
[9] = Table 6, 0.03 mpk, PEG lipid C13 Ether
[10] = Table 6, 0.03 mpk, PEG lipid C14 Ether
[11] = Table 6, 0.03 mpk, PEG lipid PEG2K-DMG

## CCCCCCCCC(CCCCCCCC)OC(=O)CCCC(=O)OCC(COC(=O)CCCC(=O)OC(CCCCCCCC)CCCCCCCC)COC(=O)OCCCN(C)CC [Compound 30, O,O′-(2-((((3-(ethyl(methyl)amino)propoxy)carbonyl)oxy)methyl)propane-1,3-diyl) di(heptadecan-9-yl) diglutarate]
[1]
  Mean % editing: 12.6%

## CCCCCCCCCCCC(=O)OCC(COC(=O)CCC(OCCCCCCCC)OCCCCCCCC)COC(=O)OCCCN(CC)CC (stereo not shown) [Compound 41, 3-((4,4-bis(octyloxy)butanoyl)oxy)-2-((((3-(diethylamino)propoxy)carbonyl)oxy)methyl)propyl Dodecanoate]
[2]
  Mean % editing: 5.8%

## CCCCCCCCC(CCCCCCCC)OC(=O)CCCC(=O)OCC(COC(=O)CCCC(=O)OC(CCCCCCCC)CCCCCCCC)COC(=O)NCCN1CCCCC1 [Compound 28, di(heptadecan-9-yl) O,O′-(2-((((2-(piperidin-1-yl)ethyl)carbamoyl)oxy)methyl)propane-1,3-diyl) diglutarate]
[1]
  Mean % editing: 11.0%

## CCCCC/C=C\C/C=C\CCCCCCCC(=O)OCC(COC(=O)CCCC(=O)OC(CCCCCCCC)CCCCCCCC)COC(=O)N(C)CCN(CC)CC (stereo not shown) [Compound 49, 3-(((2-(diethylamino)ethyl)(methyl)carbamoyl)oxy)-2-((((9Z,12Z)-octadeca-9,12-dienoyl)oxy)methyl)propyl heptadecan-9-yl Glutarate]
[3]
  Mean % editing: 47.1%

## CCCCCCCCC(CCCCCCCC)C(=O)OCC(COC(=O)NCCN(CC)CC)COC(=O)C(CCCCCCCC)CCCCCCCC [Compound 40, 2-((((2-(diethylamino)ethyl)carbamoyl)oxy)methyl)propane-1,3-diyl bis(2-octyldecanoate)]
[4]
  Mean % editing: 1.0%

## CCCCC/C=C\C/C=C\CCCCCCCC(=O)OCC(COC(=O)CCCCCC(=O)OC(CCCCCCCC)CCCCCCCC)COC(=O)OCCCN(CC)CC (stereo not shown) [Compound 57]
[5]
  Mean % editing: 46.7%
[6]
  Mean % editing: 39.5%

## CCCCCCC(CCCC)COC(=O)CCCCCC(=O)OCC(COC(=O)CCCCCC(=O)OCC(CCCC)CCCCCC)COC(=O)OCCCN(CC)CC (stereo not shown) [Compound 5, 7,7′-bis(2-butyloctyl) O′1,O1-(2-((((3-(diethylamino)propoxy)carbonyl)oxy)methyl)propane-1,3-diyl) di(heptanedioate)]
[5]
  Mean % editing: 52.0%

## CCCCC/C=C\C/C=C\CCCCCCCC(=O)OCC(COC(=O)CCCCCC(=O)OCC(CCCC)CCCCCC)COC(=O)OCCCN(CC)CC (stereo not shown) [Compound 4, 1-(2-butyloctyl) 7-(3-(((3-(diethylamino)propoxy)carbonyl)oxy)-2-((((9Z,12Z)-octadeca-9,12-dienoyl)oxy)methyl)propyl) heptanedioate]
[5]
  Mean % editing: 27.2%
[6]
  Mean % editing: 29.7%

## CCCCC/C=C\C/C=C\CCCCCCCC(=O)OCC(CCCCCCCCC(=O)OC(CCCCCCCC)CCCCCCCC)COC(=O)OCCCN(C)CC (stereo not shown) [Compound 11, 2-((((3-(ethyl(methyl)amino)propoxy)carbonyl)oxy)methyl)-11-(heptadecan-9-yloxy)-11-oxoundecyl (9Z,12Z)-octadeca-9,12-dienoate]
Experiment 4, 0.1 mpk, LNP with PEG2K-DMG
  Mean % editing: 14.0%

## CCCCCCCCC(CCCCCCCC)OC(=O)CCCC(=O)OCC(COC(=O)CCCC(=O)OC(CCCCCCCC)CCCCCCCC)COC(=O)CCCN(C)C [Compound 34, O,O′-(2-(((4-(dimethylamino)butanoyl)oxy)methyl)propane-1,3-diyl) di(heptadecan-9-yl) diglutarate]
[4]
  Mean % editing: 14.9%

## CCCCC/C=C\C/C=C\CCCCCCCC(=O)OCC(COC(=O)CCC(OCCCCCCCC)OCCCCCCCC)COC(=O)NCCN(CC)CC (stereo not shown) [Compound 54]
Experiment 1, 0.1 mpk, LNP with PEG2K-DMG
  Mean % editing: 36.9%

## CCCCCCCCC(CCCCCCCC)OC(=O)CCCC(=O)OCC(C)(COC(=O)CCCC(=O)OC(CCCCCCCC)CCCCCCCC)COC(=O)NCCN(CC)CC [Compound 36, O,O′-(2-((((2-(diethylamino)ethyl)carbamoyl)oxy)methyl)-2-methylpropane-1,3-diyl) di(heptadecan-9-yl) diglutarate]
[1]
  Mean % editing: 27.4%

## CCCCC/C=C\C/C=C\CCCCCCCC(=O)OCC(CCCCCCC(=O)OC(CCCCCCCC)CCCCCCCC)COC(=O)OCCCN(CC)CC (stereo not shown) [Compound 16, 2-((((3-(diethylamino)propoxy)carbonyl)oxy)methyl)-9-(heptadecan-9-yloxy)-9-oxononyl (9Z,12Z)-octadeca-9,12-dienoate]
[7]
  Mean % editing: 14.9%

## CCCCCCCCC(CCCCCCCC)OC(=O)CCCCCCC(=O)OCC(COC(=O)CCCCCCC(=O)OC(CCCCCCCC)CCCCCCCC)COC(=O)OCCCN(CC)CC [Compound 60]
[8]
  Mean % editing: 8.1%
[9]
  Mean % editing: 10.1%
[10]
  Mean % editing: 6.4%
[11]
  Mean % editing: 12.0%

## CCCCCCCCC(CCCCCCCC)OC(=O)CCCC(=O)OCC(COC(=O)CCCC(=O)OC(CCCCCCCC)CCCCCCCC)COC(=O)OCCCN1CCCC1 [Compound 33, di(heptadecan-9-yl) O,O′-(2-((((3-(pyrrolidin-1-yl)propoxy)carbonyl)oxy)methyl)propane-1,3-diyl) diglutarate]
[1]
  Mean % editing: 20.0%
  Mean % editing in rat liver: 12.2%

## CCCCCCCCC(CCCCCCCC)OC(=O)CCCC(=O)OCC(COC(=O)CCCC(=O)OC(CCCCCCCC)CCCCCCCC)COC(=O)NCCN(CC)CC [Compound 6, O,O′-(2-((((2-(diethylamino)ethyl)carbamoyl)oxy)methyl)propane-1,3-diyl) di(heptadecan-9-yl) diglutarate]
[1]
  Mean % editing: 36.3%
[8]
  Mean % editing: 25.0%
[4]
  Mean % editing: 22.4%
  Mean % editing in rat liver: 30.4%
[9]
  Mean % editing: 27.4%
[10]
  Mean % editing: 18.9%
[11]
  Mean % editing: 26.8%
Table 8, 0.03 mpk, LNP with C13 Ether
  Mean % editing: 41.7%

## CCCCC/C=C\C/C=C\CCCCCCCC(=O)OCC(CCCCCCC(=O)OC(CCCC)CCCC)COC(=O)OCCCN(CC)CC (stereo not shown) [Compound 20, 2-((((3-(diethylamino)propoxy)carbonyl)oxy)methyl)-9-(nonan-5-yloxy)-9-oxononyl (9Z,12Z)-octadeca-9,12-dienoate]
[7]
  Mean % editing: 32.0%

## CCCCCCCCC(CCCCCCCC)OC(=O)CCCCCCC(COC(=O)CCCC(=O)OC(CCCCCCCC)CCCCCCCC)COC(=O)OCCCN(CC)CC (stereo not shown) [Compound 8, 2-((((3-(diethylamino)propoxy)carbonyl)oxy)methyl)-9-(heptadecan-9-yloxy)-9-oxononyl heptadecan-9-yl glutarate]
[6]
  Mean % editing: 20.8%

## CCCCCCCCOC(CCC(=O)OCC(COC(=O)CC(CCCC)CCCCCC)COC(=O)OCCCN(CC)CC)OCCCCCCCC (stereo not shown) [Compound 43, 3-((4,4-bis(octyloxy)butanoyl)oxy)-2-((((3-(diethylamino)propoxy)carbonyl)oxy)methyl)propyl 3-butylnonanoate]
[2]
  Mean % editing: 57.5%

## CCCCC/C=C\C/C=C\CCCCCCCC(=O)OCC(COC(=O)CCCC(=O)OC(CCCCCCCC)CCCCCCCC)COC(=O)NCCN1CCCCCC1 (stereo not shown) [Compound 50, 3-(((2-(azepan-1-yl)ethyl)carbamoyl)oxy)-2-((((9Z,12Z)-octadeca-9,12-dienoyl)oxy)methyl)propyl heptadecan-9-yl Glutarate]
[3]
  Mean % editing: 53.1%

## CCCCC/C=C\C/C=C\CCCCCCCC(=O)OCC(CCCCCCCCC(=O)OCC(CCCC)CCCCCC)COC(=O)OCCCN(CC)CC (stereo not shown) [Compound 7, 11-((2-butyloctyl)oxy)-2-((((3-(diethylamino)propoxy)carbonyl)oxy)methyl)-11-oxoundecyl (9Z,12Z)-octadeca-9,12-dienoate]
[6]
  Mean % editing: 30.0%
